Literature values as cited in US20010031279A1, “Controlled delivery of antidepressants” (priority 1998, published 2001).
Counter-ions that a name gives are not always drawn.

time of peak plasma concentrations after dosing (conventional immediate release formulations): about one
half-life (in vivo): 2 to 4 h
SMILES: CCc1nn(CCCN2CCN(c3cccc(Cl)c3)CC2)c(=O)n1CCOc1ccccc1 [nefazodone hydrochloride, 2-[3-[4-(3-chlorophenyl)-piperazinyl]propyl]-5-ethyl-4-(2-phenoxyethyl)-2H-1,2,4-triazol-3(4H)-one hydrochloride]
